We go through nine molecules from patent US10336732B2, “1-heterocyclyl isochromanyl compounds and analogs for treating CNS disorders” (Sunovion Pharmaceuticals Inc., priority 2015, dated 2019).

The assay concerns mice. Put plainly: Neuropharmacological assay (SmartCube), behavioral signature of compound-treated mice. Type of assay: in vivo. Particulars: i.p. 15 min before behavioral test, most efficacious dose(s) of 3 doses. In short, it runs like this: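 Read-out is an automated video-based behavioral signature, scored as per-class probabilities (e.g., anxiolytic, antidepressant) against reference compounds. Dosing was i.p. at three doses, 15 min pre-test, in NMP, polyethylene glycol and propylene glycol. Values shown are from the most efficacious dose(s).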
In the case of `N#Cc1cccc2c1[C@@H]([C@@H]1CCCN1)OCC2` [Compound I-37, (S)-1-((S)-pyrrolidin-2-yl)isochroman-8-carbonitrile], the “AD: ADHD (probability that behavioral signature matches class)” value (shortened to “AD: ADHD”) is reported as “+ (LOQ ≤ + <5%)”, the “AG: analgesic (probability that behavioral signature matches class)” value (“AG: analgesic” below) is on record as “+ (LOQ ≤ + <5%)”, the “AX: anxiolytic (probability that behavioral signature matches class)” value (shortened to “AX: anxiolytic”) is given as “++ (5% ≤ ++ <25%)” and the “CE: cognitive enhancer (probability that behavioral signature matches class)” value (from here on “CE: cognitive enhancer”) is “+ (LOQ ≤ + <5%)”. Moreover, the “DP: anti-depressant (probability that behavioral signature matches class)” value (“DP: anti-depressant” for short) is “++ (5% ≤ ++ <25%)”, the “HA: hallucinogen (probability that behavioral signature matches class)” value (from here on “HA: hallucinogen”) was “+ (LOQ ≤ + <5%)”, the “MS: mood stabilizer (probability that behavioral signature matches class)” value (shortened to “MS: mood stabilizer”) is listed as “+ (LOQ ≤ + <5%)” and the “PS: anti-psychotic (probability that behavioral signature matches class)” value (shortened to “PS: anti-psychotic”) is listed as “++ (5% ≤ ++ <25%)”. Also, the “SD: sedative hypnotic (probability that behavioral signature matches class)” value (from here on “SD: sedative hypnotic”) is on record as “+ (LOQ ≤ + <5%)”, the “UN: uncharacterized CNS activity (probability that behavioral signature matches class)” value (“UN: uncharacterized CNS activity” below) is “+++ (25% ≤ +++ <50%)” and the “XG: anxiogenic (probability that behavioral signature matches class)” value (from here on “XG: anxiogenic”) is “+ (LOQ ≤ + <5%)”.
`Fc1ccc2c(c1)CCCO[C@@H]2[C@@H]1CCCN1` [Compound I-110, (S)-2-((S)-7-fluoro-1,3,4,5-tetrahydrobenzo[c]oxepin-1-yl)pyrrolidine]: the “AD: ADHD” value was “+ (LOQ ≤ + <5%)”, the “AG: analgesic” value is “++ (5% ≤ ++ <25%)”, the “AX: anxiolytic” value was “++ (5% ≤ ++ <25%)” and the “CE: cognitive enhancer” value was “++ (5% ≤ ++ <25%)”. In addition, the “DP: anti-depressant” value is “++ (5% ≤ ++ <25%)”, the “HA: hallucinogen” value is “+ (LOQ ≤ + <5%)”, the “MS: mood stabilizer” value is given as “+ (LOQ ≤ + <5%)” and the “PS: anti-psychotic” value is “++++ (50% ≤ ++++)”. Moreover, the “SD: sedative hypnotic” value is reported as “++ (5% ≤ ++ <25%)”, the “UN: uncharacterized CNS activity” value is on record as “+++ (25% ≤ +++ <50%)” and the “XG: anxiogenic” value is given as “+ (LOQ ≤ + <5%)”.
Consider `Fc1ccc2c(c1)CO[C@H]2[C@H]1CCCN1` [Compound I-121, (R)-2-((R)-5-fluoro-1,3-dihydroisobenzofuran-1-yl)pyrrolidine], for which the “AD: ADHD” value is reported as “+ (LOQ ≤ + <5%)”, the “AG: analgesic” value was “+++ (25% ≤ +++ <50%)”, the “AX: anxiolytic” value was “+++ (25% ≤ +++ <50%)” and the “CE: cognitive enhancer” value was “++ (5% ≤ ++ <25%)”. Besides, the “DP: anti-depressant” value is “++ (5% ≤ ++ <25%)”, the “HA: hallucinogen” value is listed as “+ (LOQ ≤ + <5%)”, the “MS: mood stabilizer” value is “+ (LOQ ≤ + <5%)” and the “PS: anti-psychotic” value is “++ (5% ≤ ++ <25%)”. The “SD: sedative hypnotic” value was “++ (5% ≤ ++ <25%)”, the “UN: uncharacterized CNS activity” value is “++ (5% ≤ ++ <25%)” and the “XG: anxiogenic” value is “+ (LOQ ≤ + <5%)”.
For `COc1cccc2c1[C@@H]([C@H]1CCCN1)OCC2` [Compound I-50, (R)-2-((S)-8-methoxyisochroman-1-yl)pyrrolidine], the “AD: ADHD” value is recorded as “+ (LOQ ≤ + <5%)”, the “AG: analgesic” value is recorded as “++ (5% ≤ ++ <25%)”, the “AX: anxiolytic” value was “+++ (25% ≤ +++ <50%)” and the “CE: cognitive enhancer” value was “++ (5% ≤ ++ <25%)”. Moreover, the “DP: anti-depressant” value is listed as “++ (5% ≤ ++ <25%)”, the “HA: hallucinogen” value is given as “+ (LOQ ≤ + <5%)”, the “MS: mood stabilizer” value is reported as “+ (LOQ ≤ + <5%)” and the “PS: anti-psychotic” value is reported as “++ (5% ≤ ++ <25%)”. Besides, the “SD: sedative hypnotic” value is given as “+ (LOQ ≤ + <5%)”, the “UN: uncharacterized CNS activity” value is on record as “+++ (25% ≤ +++ <50%)” and the “XG: anxiogenic” value was “+ (LOQ ≤ + <5%)”.
With `Clc1ccc2c(c1)CCO[C@H]2[C@H]1CCCN1` [Compound I-35, (R)-2-((R)-6-chloroisochroman-1-yl)pyrrolidine], the “AD: ADHD” value is “+ (LOQ ≤ + <5%)”, the “AG: analgesic” value is listed as “+ (LOQ ≤ + <5%)”, the “AX: anxiolytic” value is reported as “++ (5% ≤ ++ <25%)” and the “CE: cognitive enhancer” value is “++ (5% ≤ ++ <25%)”. Besides, the “DP: anti-depressant” value is listed as “++ (5% ≤ ++ <25%)”, the “HA: hallucinogen” value was “+ (LOQ ≤ + <5%)”, the “MS: mood stabilizer” value is on record as “+ (LOQ ≤ + <5%)” and the “PS: anti-psychotic” value is given as “+++ (25% ≤ +++ <50%)”. The “SD: sedative hypnotic” value is “++ (5% ≤ ++ <25%)”, the “UN: uncharacterized CNS activity” value is reported as “++ (5% ≤ ++ <25%)” and the “XG: anxiogenic” value is “+ (LOQ ≤ + <5%)”.
With `C[C@]1([C@@H]2CCCN2)OCc2cc(F)ccc21` [Compound I-123, (S)-2-((S)-5-fluoro-1-methyl-1,3-dihydroisobenzofuran-1-yl)pyrrolidine], the “AD: ADHD” value is listed as “+ (LOQ ≤ + <5%)”, the “AG: analgesic” value was “+ (LOQ ≤ + <5%)”, the “AX: anxiolytic” value was “+ (LOQ ≤ + <5%)” and the “CE: cognitive enhancer” value is reported as “+ (LOQ ≤ + <5%)”. Also, the “DP: anti-depressant” value is recorded as “+ (LOQ ≤ + <5%)”, the “HA: hallucinogen” value is recorded as “+ (LOQ ≤ + <5%)”, the “MS: mood stabilizer” value was “+ (LOQ ≤ + <5%)” and the “PS: anti-psychotic” value is reported as “+ (LOQ ≤ + <5%)”. For the same molecule, the “SD: sedative hypnotic” value was “+ (LOQ ≤ + <5%)”, the “UN: uncharacterized CNS activity” value is given as “+ (LOQ ≤ + <5%)” and the “XG: anxiogenic” value was “+ (LOQ ≤ + <5%)”.
For `Fc1ccc2c(c1)CO[C@@H]2[C@@H]1CCCN1` [Compound I-118, (S)-2-((S)-5-fluoro-1,3-dihydroisobenzofuran-1-yl)pyrrolidine], the “AD: ADHD” value is reported as “+ (LOQ ≤ + <5%)”, the “AG: analgesic” value is “++ (5% ≤ ++ <25%)”, the “AX: anxiolytic” value is reported as “+++ (25% ≤ +++ <50%)” and the “CE: cognitive enhancer” value is listed as “++ (5% ≤ ++ <25%)”. Also, the “DP: anti-depressant” value is given as “++ (5% ≤ ++ <25%)”, the “HA: hallucinogen” value was “+ (LOQ ≤ + <5%)”, the “MS: mood stabilizer” value is listed as “++ (5% ≤ ++ <25%)” and the “PS: anti-psychotic” value is listed as “+++ (25% ≤ +++ <50%)”. In addition, the “SD: sedative hypnotic” value is “++ (5% ≤ ++ <25%)”, the “UN: uncharacterized CNS activity” value is listed as “+ (LOQ ≤ + <5%)” and the “XG: anxiogenic” value is “+ (LOQ ≤ + <5%)”.
With `Fc1ccc2c(c1)[C@H]([C@H]1CCN1)OCC2` [Compound I-87, (R)-2-((R)-7-fluoroisochroman-1-yl)azetidine], the “AD: ADHD” value is “+ (LOQ ≤ + <5%)”, the “AG: analgesic” value is “++ (5% ≤ ++ <25%)”, the “AX: anxiolytic” value was “++ (5% ≤ ++ <25%)” and the “CE: cognitive enhancer” value is given as “+ (LOQ ≤ + <5%)”. Further, the “DP: anti-depressant” value is listed as “++ (5% ≤ ++ <25%)”, the “HA: hallucinogen” value is given as “+ (LOQ ≤ + <5%)”, the “MS: mood stabilizer” value is “+ (LOQ ≤ + <5%)” and the “PS: anti-psychotic” value is recorded as “+++ (25% ≤ +++ <50%)”. Further, the “SD: sedative hypnotic” value is reported as “+ (LOQ ≤ + <5%)”, the “UN: uncharacterized CNS activity” value was “++ (5% ≤ ++ <25%)” and the “XG: anxiogenic” value is reported as “+ (LOQ ≤ + <5%)”.
With `c1ccc2c(c1)CCCO[C@H]2[C@H]1CCCN1` [Compound I-100, (R)-2-((R)-1,3,4,5-tetrahydrobenzo[c]oxepin-1-yl)pyrrolidine], the “AD: ADHD” value is “+ (LOQ ≤ + <5%)”, the “AG: analgesic” value is on record as “++ (5% ≤ ++ <25%)”, the “AX: anxiolytic” value is recorded as “++ (5% ≤ ++ <25%)” and the “CE: cognitive enhancer” value is given as “+++ (25% ≤ +++ <50%)”. For the same molecule, the “DP: anti-depressant” value is recorded as “++ (5% ≤ ++ <25%)”, the “HA: hallucinogen” value was “+ (LOQ ≤ + <5%)”, the “MS: mood stabilizer” value is “++ (5% ≤ ++ <25%)” and the “PS: anti-psychotic” value is given as “+++ (25% ≤ +++ <50%)”. Further, the “SD: sedative hypnotic” value is “++ (5% ≤ ++ <25%)”, the “UN: uncharacterized CNS activity” value was “+ (LOQ ≤ + <5%)” and the “XG: anxiogenic” value is reported as “+ (LOQ ≤ + <5%)”.
